Test results reported in ChEMBL document CHEMBL5154782, “Discovery of Potent PROTACs Targeting EGFR Mutants through the Optimization of Covalent EGFR Ligands” (J Med Chem, 2022).
The source made the active and inactive calls. No cut-off for these calls is given here.

Tests used:
BaF3 [1] = assay: Antiproliferative activity against mouse BaF3 cells expressing EGFR deletion19/T790M/C797S mutant assessed as reduction on cell growth incubated for 72 hrs by MTT assay; assay type: toxicity, cell-based; details: BaF3, 72 h
BaF3 [2] = assay: Antiproliferative activity against mouse BaF3 cells expressing EGFR L858R/T790M/C797S mutant assessed as reduction on cell growth incubated for 72 hrs by MTT assay; assay type: toxicity, cell-based; details: BaF3, 72 h
PC-9 = assay: Antiproliferative activity against human PC-9 cells expressing EGFR deletion19/T790M/C797S mutant assessed as reduction on cell growth growth incubated for 72 hrs by MTT assay; assay type: functional, cell-based; details: PC-9, 72 h
NCI-H1975 [3] = assay: Antiproliferative activity against human NCI-H1975 cells expressing EGFR L858R/T790M/C797S mutant assessed as reduction on cell growth incubated for 72 hrs by MTT assay; assay type: functional, cell-based; details: NCI-H1975, 72 h
[4] = target: von Hippel-Lindau disease tumor suppressor/Epidermal growth factor receptor (Homo sapiens, UniProt P00533+P40337); assay: Protac activity at VHL/EGFR deletion19 mutant in human HCC827 cells assessed as induction of EGFR degradation; assay type: cell-based
HCC827 [5] = assay: Antiproliferative activity against human HCC827 cells expressing EGFR deletion19 mutant assessed as inhibition of cell proliferation; assay type: functional, cell-based
[6] = system: Protein cereblon/Epidermal growth factor receptor (Homo sapiens), P00533+Q96SW2 [L858R,T790M]; assay: Protac activity at CRBN/EGFR L858R/T790M mutant in mouse BaF3 cells assessed as induction of EGFR degradation at 100 nM; assay type: cell-based
[7] = system: Protein cereblon/Epidermal growth factor receptor (Homo sapiens), P00533+Q96SW2 [L858R,T790M,C797S]; assay: Protac activity at CRBN/EGFR L858R/T790M/C797S mutant in mouse BaF3 cells assessed as induction of EGFR degradation at 100 nM; assay type: cell-based
[8] = system: von Hippel-Lindau disease tumor suppressor/Epidermal growth factor receptor (Homo sapiens), P00533+P40337 [L858R,T790M]; assay: Protac activity at VHL/EGFR L858R/T790M mutant in human NCI-H1975 cells assessed as induction of EGFR degradation at 100 nM incubated for 24 hrs by Western blot analysis relative to control; assay type: cell-based
NCI-H1975 [9] = assay: Inhibition of colony formation in human NCI-H1975 cells at 1 to 30 nM incubated for 10 days by crystal violet based assay; assay type: functional, cell-based; details: dose 1-30 nM, time 10.0 day
HCC827 [10] = assay: Inhibition of colony formation in human HCC827 cells at 1 to 30 nM incubated for 10 days by crystal violet based assay; assay type: functional, cell-based; details: dose 1-30 nM, time 10.0 day
NCI-H1975 [11] = assay: Antiproliferative activity against human NCI-H1975 cells expressing EGFR L858R/T790M mutant assessed as inhibition of cell proliferation incubated for 72 hrs by MTT assay; assay type: functional, cell-based; details: NCI-H1975, 72 h
HCC827 [12] = assay: Antiproliferative activity against human HCC827 cells expressing EGFR deletion19 mutant assessed as inhibition of cell proliferation incubated for 72 hrs by MTT assay; assay type: functional, cell-based; details: HCC827, 72 h
A-431 = assay: Antiproliferative activity against human A-431 cells expressing EGFR wildtype assessed as inhibition of cell proliferation incubated for 72 hrs by MTT assay; assay type: functional, cell-based; details: A-431, 72 h
[13] = system: von Hippel-Lindau disease tumor suppressor/Epidermal growth factor receptor (Homo sapiens), P00533+P40337 [L858R,T790M]; assay: Protac activity at VHL/EGFR L858R/T790M mutant in human NCI-H1975 cells assessed as induction of EGFR degradation at 10 nM incubated for 24 hrs by Western blot analysis relative to control; assay type: cell-based
[14] = system: von Hippel-Lindau disease tumor suppressor/Epidermal growth factor receptor (Homo sapiens), P00533+P40337 [UNDEFINED MUTATION]; assay: Protac activity at VHL/EGFR/deletion19 in human HCC827 cells assessed as induction of EGFR degradation at 3 nM incubated for 24 hrs by Western blot analysis relative to control; assay type: cell-based
[15] = system: von Hippel-Lindau disease tumor suppressor/Epidermal growth factor receptor (Homo sapiens), P00533+P40337 [UNDEFINED MUTATION]; assay: Protac activity at VHL/EGFR/deletion19 in human HCC827 cells assessed as induction of EGFR degradation at 30 nM incubated for 24 hrs by Western blot analysis relative to control; assay type: cell-based
[16] = target: von Hippel-Lindau disease tumor suppressor/Epidermal growth factor receptor (Homo sapiens, UniProt P00533+P40337, L858R); assay: Protac activity at VHL/EGFR L858R mutant (unknown origin) assessed as inhibition of EGFR incubated for 40 mins in presence of ATP by Kinase Glo luminescence assay; assay type: protein assay
[17] = target: von Hippel-Lindau disease tumor suppressor/Epidermal growth factor receptor (Homo sapiens, UniProt P00533+P40337, L858R/T790M); assay: Protac activity at VHL/EGFR L858R/T790M mutant (unknown origin) assessed as inhibition of EGFR incubated for 40 mins in presence of ATP by Kinase Glo luminescence assay; assay type: protein assay

COc1cc(N2CCC(N3CCN(C)CC3)CC2)c(C)cc1Nc1ncc(Br)c(Nc2ccc3nccnc3c2P(C)(C)=O)n1
IC50 (BaF3 [1]): 17 nM | IC50 (BaF3 [2]): 21 nM | IC50 (PC-9): 45 nM | IC50 (NCI-H1975 [3]): 910 nM

COc1cc2ncnc(Nc3ccc(F)c(Cl)c3)c2cc1OCCCCCOCCOCCC(=O)N[C@H](C(=O)N1C[C@H](O)C[C@H]1C(=O)NCc1ccc(-c2scnc2C)cc1)C(C)(C)C
DC50 [4]: 11.7 nM

Cc1ncsc1-c1ccc(CNC(=O)[C@@H]2C[C@@H](O)CN2C(=O)[C@@H](NC(=O)CCCCCCN2CCN(c3ccc(Nc4ncc5nc(Nc6ccccc6)n(C6CCCC6)c5n4)cc3)CC2)C(C)(C)C)cc1
DC50 [4]: 0.51 nM | IC50 (HCC827 [5]): 0.76 nM

O=C1CCC(N2C(=O)c3cccc(NCCOCCOCCOCCN4CCN(c5ccc(-c6ccc7c(c6)C(=O)N(C(C(=O)Nc6nccs6)c6ccccc6)C7)cn5)CC4)c3C2=O)C(=O)N1 (stereo unspecified)
Activity [6]: 59% | Activity [7]: 74%

O=C1CCC(N2Cc3c(NC(=O)CCCCCCN4CCN(c5ccc(Nc6cc7c(N8CCC(CO)CC8)nc(Nc8ccc(F)cc8)nc7cn6)nc5)CC4)cccc3C2=O)C(=O)N1 (stereo unspecified)
DC50 [4]: 34.8 nM | IC50 (HCC827 [5]): 220 nM

C=CC(=O)N1CCC[C@H](n2c(Nc3ccccc3)nc3cnc(Nc4ccc(N5CCN(CCCCCCCC(=O)N[C@H](C(=O)N6C[C@H](O)C[C@H]6C(=O)NCc6ccc(-c7scnc7C)cc6)C(C)(C)C)CC5)cc4)nc32)C1
Activity [8]: 74% | inhibition (NCI-H1975 [9]): Active | inhibition (HCC827 [10]): Active | IC50 (NCI-H1975 [11]): 39 nM | IC50 (HCC827 [12]): 2.55 nM | IC50 (A-431): > 10000 nM | Activity [13]: < 20% | Activity [14]: 69% | Activity [15]: 78%

C=CC(=O)N1CCC[C@H](n2c(Nc3ccccc3)nc3cnc(Nc4ccc(N5CCN(C)CC5)cc4)nc32)C1
Activity [8]: < 20% | IC50 [16]: 21 nM | IC50 [17]: 38 nM | IC50 (NCI-H1975 [11]): 12 nM | IC50 (HCC827 [12]): 0.33 nM | IC50 (A-431): 7090 nM
